Assay results published in patent US7834005B2, “Pyrrolobenzodiazepine derivatives, compositions comprising the same and methods related thereto” (The United States of America as represented by the …, priority 2003, dated 2010).
Where two headings read alike, the source gives them in different places.

What was measured:
CCRF-CEM = test: 60-cell-line screen: CCRF-CEM (Leukemia); type: cell-based
MOLT-4 = test: 60-cell-line screen: MOLT-4 (Leukemia); type: cell-based
RPMI-8226 = test: 60-cell-line screen: RPMI-8226 (Leukemia); type: cell-based
A549/ATCC = test: 60-cell-line screen: A549/ATCC (Non-Small Cell Lung); type: cell-based; settings: read-out: LC50 (the source's name)
Source text: (§1) The concentration effects of the compound for various cancer cell lines are summarized in Tables 2-10, wherein GI50 is the drug concentration required to inhibit the growth of 50% of the cells, TGI is the drug concentration required for total growth inhibition, and LC50 is the drug concentration required to kill 50% of the cells.

EKVX = test: 60-cell-line screen: EKVX (Non-Small Cell Lung); type: cell-based; settings: read-out: LC50 (the source's name)
HOP-62 = test: 60-cell-line screen: HOP-62 (Non-Small Cell Lung); type: cell-based; settings: read-out: LC50 (the source's name)
HOP-92 = test: 60-cell-line screen: HOP-92 (Non-Small Cell Lung); type: cell-based; settings: read-out: LC50 (the source's name)
NCI-H226 = test: 60-cell-line screen: NCI-H226 (Non-Small Cell Lung); type: cell-based; settings: read-out: LC50 (the source's name)
NCI-H23 = test: 60-cell-line screen: NCI-H23 (Non-Small Cell Lung); type: cell-based
NCI-H322M = test: 60-cell-line screen: NCI-H322M (Non-Small Cell Lung); type: cell-based; settings: read-out: LC50 (the source's name)
NCI-H460 = test: 60-cell-line screen: NCI-H460 (Non-Small Cell Lung); type: cell-based; settings: read-out: LC50 (the source's name)
NCI-H522 = test: 60-cell-line screen: NCI-H522 (Non-Small Cell Lung); type: cell-based; settings: read-out: LC50 (the source's name)
COLO 205 = test: 60-cell-line screen: COLO 205 (Colon); type: cell-based
HCT-15 = test: 60-cell-line screen: HCT-15 (Colon); type: cell-based; settings: read-out: LC50 (the source's name)
KM12 = test: 60-cell-line screen: KM12 (Colon); type: cell-based; settings: read-out: LC50 (the source's name)
Source text: as §1

SW-620 = test: 60-cell-line screen: SW-620 (Colon); type: cell-based; settings: read-out: LC50 (the source's name)
Source text: as §1

SF-268 = test: 60-cell-line screen: SF-268 (Central Nervous System); type: cell-based; settings: read-out: LC50 (the source's name)
Source text: as §1

SF-295 = test: 60-cell-line screen: SF-295 (Central Nervous System); type: cell-based; settings: read-out: LC50 (the source's name)
Source text: as §1

SF-539 = test: 60-cell-line screen: SF-539 (Central Nervous System); type: cell-based; settings: read-out: LC50 (the source's name)
Source text: as §1

SNB-19 = test: 60-cell-line screen: SNB-19 (Central Nervous System); type: cell-based; settings: read-out: LC50 (the source's name)
SNB-75 = test: 60-cell-line screen: SNB-75 (Central Nervous System); type: cell-based
U251 = test: 60-cell-line screen: U251 (Central Nervous System); type: cell-based; settings: read-out: LC50 (the source's name)
MALME-3M = test: 60-cell-line screen: MALME-3M (Melanoma); type: cell-based
M14 = test: 60-cell-line screen: M14 (Melanoma); type: cell-based; settings: read-out: LC50 (the source's name)
SK-MEL-2 = test: 60-cell-line screen: SK-MEL-2 (Melanoma); type: cell-based
SK-MEL-28 = test: 60-cell-line screen: SK-MEL-28 (Melanoma); type: cell-based; settings: read-out: LC50 (the source's name)
UACC-257 = test: 60-cell-line screen: UACC-257 (Melanoma); type: cell-based
UACC-62 = test: 60-cell-line screen: UACC-62 (Melanoma); type: cell-based
IGROV1 = test: 60-cell-line screen: IGROV1 (Ovarian); type: cell-based
OVCAR-3 = test: 60-cell-line screen: OVCAR-3 (Ovarian); type: cell-based
Source text: as §1

OVCAR-4 = test: 60-cell-line screen: OVCAR-4 (Ovarian); type: cell-based
Source text: as §1

OVCAR-5 = test: 60-cell-line screen: OVCAR-5 (Ovarian); type: cell-based
Source text: as §1

OVCAR-8 = test: 60-cell-line screen: OVCAR-8 (Ovarian); type: cell-based
Source text: as §1

SK-OV-3 = test: 60-cell-line screen: SK-OV-3 (Ovarian); type: cell-based
Source text: as §1

786-0 = test: 60-cell-line screen: 786-0 (Renal); type: cell-based
ACHN = test: 60-cell-line screen: ACHN (Renal); type: cell-based
CAKI-1 = test: 60-cell-line screen: CAKI-1 (Renal); type: cell-based
SN12C = test: 60-cell-line screen: SN12C (Renal); type: cell-based
TK-10 = test: 60-cell-line screen: TK-10 (Renal); type: cell-based
UO-31 = test: 60-cell-line screen: UO-31 (Renal); type: cell-based
PC-3 = test: 60-cell-line screen: PC-3 (Prostate); type: cell-based
DU-145 = test: 60-cell-line screen: DU-145 (Prostate); type: cell-based
NCI/ADR-RES = test: 60-cell-line screen: NCI/ADR-RES (Breast); type: cell-based
Source text: as §1

MDA-MB-231/ATCC = test: 60-cell-line screen: MDA-MB-231/ATCC (Breast); type: cell-based
Source text: as §1

HS 578T = test: 60-cell-line screen: HS 578T (Breast); type: cell-based; settings: read-out: LC50 (the source's name)
Source text: as §1

MDA-MB-435 = test: 60-cell-line screen: MDA-MB-435 (Breast); type: cell-based
MDA-N = test: 60-cell-line screen: MDA-N (Breast); type: cell-based
BT-549 = test: 60-cell-line screen: BT-549 (Breast); type: cell-based; settings: read-out: LC50 (the source's name)
Source text: as §1

T-47D = test: 60-cell-line screen: T-47D (Breast); type: cell-based; settings: read-out: LC50 (the source's name)
[1] = read-out: LC50 (the source's name)

C=C1C[C@H]2C(O)Nc3cc(OCCCOc4cc5c(cc4OC)C(=O)N4CC(=C)C[C@H]4C(O)N5)c(OC)cc3C(=O)N2C1 (stereo partly shown) [Compound 16]
67.6 nM: CC50 (NCI-H23; [1])
−7.17 Log10[C] (M): LC50 (NCI-H23)
72.4 nM: CC50 (SK-MEL-2; [1])
−6.33 Log10[C] (M): LC50 (SNB-75)
251 nM: CC50 (COLO 205; [1])
70.8 nM: CC50 (MOLT-4; [1]) | CC50 (MALME-3M; [1])
28.2 nM: CC50 (HL-60(TB); read-out: LC50, Leukemia)
7.1 nM: CC50 (UACC-62; [1])
85.1 nM: CC50 (MDA-MB-435; [1])
83.2 nM: CC50 (RPMI-8226; [1])
−7.07 Log10[C] (M): LC50 (MDA-MB-435)
57.5 nM: CC50 (MDA-N; [1])
−6 Log10[C] (M): LC50 (CCRF-CEM) | LC50 (IGROV1) | LC50 (OVCAR-3) | LC50 (OVCAR-4) | LC50 (OVCAR-5) | LC50 (OVCAR-8) | LC50 (SK-OV-3) | LC50 (786-0) | LC50 (ACHN) | LC50 (CAKI-1) | LC50 (SN12C) | LC50 (TK-10) | LC50 (UO-31) | LC50 (PC-3) | LC50 (DU-145)
468 nM: CC50 (SNB-75; [1])
−7.08 Log10[C] (M): LC50 (RPMI-8226)
−7.24 Log10[C] (M): LC50 (MDA-N)
−7.55 Log10[C] (M): LC50 (HL-60(TB); Leukemia)
−8.15 Log10[C] (M): LC50 (UACC-62)
1000 nM: CC50 (CCRF-CEM; [1]) | CC50 (A549/ATCC) | CC50 (EKVX) | CC50 (HOP-62) | CC50 (HOP-92) | CC50 (NCI-H226) | CC50 (NCI-H322M) | CC50 (NCI-H460) | CC50 (NCI-H522) | CC50 (HCT-15) | CC50 (KM12) | CC50 (SW-620) | CC50 (SF-268) | CC50 (SF-295) | CC50 (SF-539) | CC50 (SNB-19) | CC50 (U251) | CC50 (M14) | CC50 (SK-MEL-28) | LC50 (UACC-257) | LC50 (IGROV1; read-out: LC50) | CC50 (OVCAR-3; [1]) | CC50 (OVCAR-4; [1]) | CC50 (OVCAR-5; [1]) | CC50 (OVCAR-8; [1]) | LC50 (SK-OV-3; read-out: LC50) | CC50 (786-0; [1]) | CC50 (ACHN; [1]) | CC50 (CAKI-1; [1]) | CC50 (SN12C; [1]) | LC50 (TK-10; read-out: LC50) | CC50 (UO-31; [1]) | CC50 (PC-3; [1]) | CC50 (DU-145; [1]) | LC50 (NCI/ADR-RES) | LC50 (MDA-MB-231/ATCC) | CC50 (HS 578T) | CC50 (BT-549) | CC50 (T-47D)
−7.14 Log10[C] (M): LC50 (SK-MEL-2)
−7.15 Log10[C] (M): LC50 (MOLT-4) | LC50 (MALME-3M)
−6.6 Log10[C] (M): LC50 (COLO 205)
